Assay results taken from paper PMC10303271, “Synthesis and Receptor Binding Studies of α5 GABAAR Selective Novel Imidazodiazepines Targeted for Psychiatric and Cognitive Disorders” (Molecules, 2023).

Columns and labels:
Alpha2Beta4 = target: T1, Alpha2Beta4 (Rattus norvegicus, UniProt P12389+P12392); experiment: PDSP primary binding Alpha2Beta4; settings: primary binding, 10,000 nM; last figure of the line = mean of the 4 before it; read-out: Alpha2Beta4, PDSP raw data, mean
T1 construct: purchased NIMH Psychoactive Drug Screening Program (PDSP)
Protocol: (§1) To determine if any off-target receptor-binding effects are present, all the novel ligands were sent to the National Institute of Mental Health (NIMH), Psychoactive Drug Screening Program (PDSP). The ligands were screened over a panel of 47 receptors, ion channels, and transporters to determine any other possible interactions with […]. The hERG-binding was also determined. […] No binding of the test compounds to calcium channels was observed. […] It is necessary to screen the compounds for hERG-binding during the early process of drug discovery. The unintentional binding of many drugs to hERG can cause blockade of hERG K+ channels in the heart, which can cause many side effects including cardiac arrhythmias and sudden death. […] All of the α5 imidazodiazepines were tested for hERG-binding.
(§2) The NIMH PDSP assay protocol book [https://kidbdev.med.unc.edu/databases/PDSP%20Protocols%20II%202013-03-28.pdf accessed on 23 April 2023]. describes the protocols for primary and secondary radio-ligand binding assays. These assays were carried out in a final volume of 125 µL per well in the appropriate binding buffer.
(§3) The binding of a ligand to a receptor, ion channel, or transporter was determined in the […] of 10 µM of the appropriate reference compound. […] Plates were incubated in the dark for 90 min at rt, and the reactions were stopped by vacuum filtration onto 0.3% polyethyleneimine (PEI) soaked 96-well filter mats using a 96-well Filtermateharvester. This was followed by three washes with cold PBS buffer. Radioactivity was then counted on a Microbeta counter. Nonlinear regression was used to analyze the data with N = 6 replicates.

5-HT4 = target: T2, 5-HT4 (Homo sapiens, UniProt Q13639); experiment: PDSP primary binding 5-HT4; settings: 1.5 h; primary binding, 10,000 nM; last figure of the line = mean of the 4 before it; read-out: 5-HT4, PDSP raw data, mean
T2 construct: purchased NIMH Psychoactive Drug Screening Program (PDSP)
Protocol: as §1, §2, §3

M1 = target: T3, M1 (Homo sapiens, UniProt P11229); experiment: PDSP primary binding M1; settings: primary binding, 10,000 nM; last figure of the line = mean of the 4 before it; read-out: M1, PDSP raw data, mean
T3 construct: purchased NIMH Psychoactive Drug Screening Program (PDSP)
T3 sequence (P11229 1-460): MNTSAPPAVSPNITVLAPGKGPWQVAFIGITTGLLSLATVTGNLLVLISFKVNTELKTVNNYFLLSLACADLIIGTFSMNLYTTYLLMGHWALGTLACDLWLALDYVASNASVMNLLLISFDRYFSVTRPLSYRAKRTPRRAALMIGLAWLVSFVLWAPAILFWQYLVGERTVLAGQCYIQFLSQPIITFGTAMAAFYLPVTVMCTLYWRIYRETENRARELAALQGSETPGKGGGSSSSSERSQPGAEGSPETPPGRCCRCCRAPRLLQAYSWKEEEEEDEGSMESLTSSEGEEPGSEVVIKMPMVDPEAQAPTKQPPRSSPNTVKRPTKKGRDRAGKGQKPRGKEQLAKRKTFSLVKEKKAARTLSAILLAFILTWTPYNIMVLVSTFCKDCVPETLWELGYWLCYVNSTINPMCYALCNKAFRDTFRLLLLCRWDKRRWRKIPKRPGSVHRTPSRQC
Protocol: as §1, §2, §3

Alpha3Beta2 = target: T4, Alpha3Beta2 (Rattus norvegicus, UniProt P04757+P12390); experiment: PDSP primary binding Alpha3Beta2; settings: primary binding, 10,000 nM; last figure of the line = mean of the 4 before it; read-out: Alpha3Beta2, PDSP raw data, mean
T4 construct: purchased NIMH Psychoactive Drug Screening Program (PDSP)
Protocol: as §1, §2, §3

D4 = target: T5, D4 (Homo sapiens, UniProt P21917); experiment: PDSP primary binding D4; settings: 1.5 h; primary binding, 10,000 nM; last figure of the line = mean of the 4 before it; read-out: D4, PDSP raw data, mean
T5 construct: purchased NIMH Psychoactive Drug Screening Program (PDSP)
T5 sequence (P21917 1-419): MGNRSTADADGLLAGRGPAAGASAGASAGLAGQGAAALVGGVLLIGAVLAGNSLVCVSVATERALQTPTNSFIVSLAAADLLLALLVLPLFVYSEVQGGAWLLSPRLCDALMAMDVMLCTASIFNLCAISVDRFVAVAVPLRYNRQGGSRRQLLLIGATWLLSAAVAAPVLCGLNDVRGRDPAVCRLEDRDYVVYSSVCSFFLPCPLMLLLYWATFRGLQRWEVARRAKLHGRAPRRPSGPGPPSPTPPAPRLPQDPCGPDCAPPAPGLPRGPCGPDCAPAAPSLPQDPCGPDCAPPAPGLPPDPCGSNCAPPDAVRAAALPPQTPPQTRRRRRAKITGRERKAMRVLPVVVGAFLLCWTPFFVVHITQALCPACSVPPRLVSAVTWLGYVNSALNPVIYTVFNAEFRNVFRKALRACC
Protocol: as §1, §2, §3

NET = target: T6, NET (Homo sapiens, UniProt P23975); experiment: PDSP primary binding NET; settings: primary binding, 10,000 nM; last figure of the line = mean of the 4 before it; read-out: NET, PDSP raw data, mean
T6 construct: purchased NIMH Psychoactive Drug Screening Program (PDSP)
Protocol: as §1, §2, §3

5-HT3 = target: T7, 5-HT3 (Homo sapiens, UniProt P46098); experiment: PDSP primary binding 5-HT3; settings: 1.5 h; primary binding, 10,000 nM; last figure of the line = mean of the 4 before it; read-out: 5-HT3, PDSP raw data, mean
T7 construct: purchased NIMH Psychoactive Drug Screening Program (PDSP)
T7 sequence (P46098 24-478): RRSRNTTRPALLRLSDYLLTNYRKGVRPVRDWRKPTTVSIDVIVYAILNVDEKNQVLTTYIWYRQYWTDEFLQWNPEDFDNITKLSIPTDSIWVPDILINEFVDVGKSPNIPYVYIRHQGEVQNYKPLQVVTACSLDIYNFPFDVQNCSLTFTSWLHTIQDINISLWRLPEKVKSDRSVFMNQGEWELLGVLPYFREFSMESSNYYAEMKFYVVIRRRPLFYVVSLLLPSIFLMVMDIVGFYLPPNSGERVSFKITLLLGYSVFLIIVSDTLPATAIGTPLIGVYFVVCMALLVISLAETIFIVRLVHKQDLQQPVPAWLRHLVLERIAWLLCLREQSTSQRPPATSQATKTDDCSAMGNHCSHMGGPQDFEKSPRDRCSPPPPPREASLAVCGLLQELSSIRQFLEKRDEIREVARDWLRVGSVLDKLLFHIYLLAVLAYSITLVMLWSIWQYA
Protocol: as §1, §2, §3

Alpha2Beta2 = target: T8, Alpha2Beta2 (Rattus norvegicus, UniProt P12389+P12390); experiment: PDSP primary binding Alpha2Beta2; settings: primary binding, 10,000 nM; last figure of the line = mean of the 4 before it; read-out: Alpha2Beta2, PDSP raw data, mean
T8 construct: purchased NIMH Psychoactive Drug Screening Program (PDSP)
Protocol: as §1, §2, §3

H2 = target: T9, H2 (Homo sapiens, UniProt P25021); experiment: PDSP primary binding H2; settings: primary binding, 10,000 nM; last figure of the line = mean of the 4 before it; read-out: H2, PDSP raw data, mean
T9 construct: purchased NIMH Psychoactive Drug Screening Program (PDSP)
Protocol: as §1, §2, §3

T9 sequence (P25021 whole entry): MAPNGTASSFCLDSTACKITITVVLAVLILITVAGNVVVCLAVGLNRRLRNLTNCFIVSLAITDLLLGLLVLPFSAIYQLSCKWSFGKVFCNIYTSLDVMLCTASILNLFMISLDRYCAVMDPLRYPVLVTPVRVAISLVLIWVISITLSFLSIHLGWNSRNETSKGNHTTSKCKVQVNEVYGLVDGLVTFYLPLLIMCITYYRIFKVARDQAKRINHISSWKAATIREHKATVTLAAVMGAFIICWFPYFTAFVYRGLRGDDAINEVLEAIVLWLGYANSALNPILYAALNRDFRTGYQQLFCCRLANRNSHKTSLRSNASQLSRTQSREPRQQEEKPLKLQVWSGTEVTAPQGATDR
T4 sequence (P04757 26-499): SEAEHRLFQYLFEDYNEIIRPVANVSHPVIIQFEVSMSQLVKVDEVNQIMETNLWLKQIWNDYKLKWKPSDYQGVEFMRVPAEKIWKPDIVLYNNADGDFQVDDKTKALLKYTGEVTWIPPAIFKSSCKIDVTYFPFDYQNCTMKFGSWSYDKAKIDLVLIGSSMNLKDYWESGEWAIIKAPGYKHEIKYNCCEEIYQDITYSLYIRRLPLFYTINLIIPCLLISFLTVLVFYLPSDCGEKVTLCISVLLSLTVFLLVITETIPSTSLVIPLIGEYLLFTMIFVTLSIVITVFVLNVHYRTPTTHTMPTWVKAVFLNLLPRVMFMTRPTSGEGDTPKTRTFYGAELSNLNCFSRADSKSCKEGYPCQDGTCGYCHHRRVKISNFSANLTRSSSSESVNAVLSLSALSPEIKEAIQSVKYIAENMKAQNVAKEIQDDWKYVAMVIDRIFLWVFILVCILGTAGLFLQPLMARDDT
T4 sequence (P12390 25-500): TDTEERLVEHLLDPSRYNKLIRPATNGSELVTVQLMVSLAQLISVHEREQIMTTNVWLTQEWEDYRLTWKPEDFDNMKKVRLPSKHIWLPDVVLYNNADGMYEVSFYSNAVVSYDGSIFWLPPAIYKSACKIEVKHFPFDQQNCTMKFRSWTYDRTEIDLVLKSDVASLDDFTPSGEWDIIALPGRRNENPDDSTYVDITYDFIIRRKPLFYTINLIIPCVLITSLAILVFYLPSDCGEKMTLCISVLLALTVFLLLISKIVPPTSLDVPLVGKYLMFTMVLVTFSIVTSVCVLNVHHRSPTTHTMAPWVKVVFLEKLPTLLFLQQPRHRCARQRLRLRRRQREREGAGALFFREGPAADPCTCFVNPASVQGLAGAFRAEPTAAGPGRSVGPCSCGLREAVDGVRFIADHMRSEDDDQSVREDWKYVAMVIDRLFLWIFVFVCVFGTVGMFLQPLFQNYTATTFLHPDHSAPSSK
T2 sequence (Q13639 whole entry): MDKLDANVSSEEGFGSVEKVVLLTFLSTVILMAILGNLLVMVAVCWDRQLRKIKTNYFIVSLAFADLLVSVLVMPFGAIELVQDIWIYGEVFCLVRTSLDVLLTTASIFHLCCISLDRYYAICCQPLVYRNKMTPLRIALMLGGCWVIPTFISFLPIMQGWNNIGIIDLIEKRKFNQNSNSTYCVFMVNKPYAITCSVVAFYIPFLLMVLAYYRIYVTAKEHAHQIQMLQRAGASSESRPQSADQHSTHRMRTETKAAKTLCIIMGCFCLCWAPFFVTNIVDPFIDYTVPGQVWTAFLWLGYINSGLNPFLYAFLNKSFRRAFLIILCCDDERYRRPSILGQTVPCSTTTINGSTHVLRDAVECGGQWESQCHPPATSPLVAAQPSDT
T6 sequence (P23975 whole entry): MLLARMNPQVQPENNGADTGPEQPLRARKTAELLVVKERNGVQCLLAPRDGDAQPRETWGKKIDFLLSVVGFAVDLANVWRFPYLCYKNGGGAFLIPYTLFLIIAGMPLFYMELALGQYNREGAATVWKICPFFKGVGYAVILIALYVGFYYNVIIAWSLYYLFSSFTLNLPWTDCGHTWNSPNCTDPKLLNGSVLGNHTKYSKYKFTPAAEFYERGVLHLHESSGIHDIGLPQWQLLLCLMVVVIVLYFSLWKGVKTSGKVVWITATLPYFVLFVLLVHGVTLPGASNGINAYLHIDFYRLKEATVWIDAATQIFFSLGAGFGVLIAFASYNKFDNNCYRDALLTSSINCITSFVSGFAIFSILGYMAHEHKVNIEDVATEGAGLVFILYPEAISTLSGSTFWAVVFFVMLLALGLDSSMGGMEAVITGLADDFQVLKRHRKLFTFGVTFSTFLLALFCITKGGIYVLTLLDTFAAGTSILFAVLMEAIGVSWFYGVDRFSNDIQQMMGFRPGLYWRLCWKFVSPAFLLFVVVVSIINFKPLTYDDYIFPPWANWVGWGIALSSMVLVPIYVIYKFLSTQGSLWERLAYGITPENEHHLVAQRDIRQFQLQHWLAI
T1 sequence (P12389 28-511): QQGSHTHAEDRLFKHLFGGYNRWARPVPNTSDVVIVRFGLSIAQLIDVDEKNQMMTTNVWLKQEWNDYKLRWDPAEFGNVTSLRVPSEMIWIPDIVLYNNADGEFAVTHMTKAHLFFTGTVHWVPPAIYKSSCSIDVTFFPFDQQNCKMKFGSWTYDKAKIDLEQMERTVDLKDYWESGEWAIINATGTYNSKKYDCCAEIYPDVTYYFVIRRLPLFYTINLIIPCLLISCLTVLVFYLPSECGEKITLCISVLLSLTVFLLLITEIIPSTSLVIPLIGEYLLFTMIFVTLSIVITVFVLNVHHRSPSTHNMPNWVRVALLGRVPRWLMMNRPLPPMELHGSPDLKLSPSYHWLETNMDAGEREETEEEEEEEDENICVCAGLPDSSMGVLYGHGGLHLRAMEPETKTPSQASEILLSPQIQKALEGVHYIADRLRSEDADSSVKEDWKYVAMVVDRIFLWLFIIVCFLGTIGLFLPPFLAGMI
T1 sequence (P12392 21-495): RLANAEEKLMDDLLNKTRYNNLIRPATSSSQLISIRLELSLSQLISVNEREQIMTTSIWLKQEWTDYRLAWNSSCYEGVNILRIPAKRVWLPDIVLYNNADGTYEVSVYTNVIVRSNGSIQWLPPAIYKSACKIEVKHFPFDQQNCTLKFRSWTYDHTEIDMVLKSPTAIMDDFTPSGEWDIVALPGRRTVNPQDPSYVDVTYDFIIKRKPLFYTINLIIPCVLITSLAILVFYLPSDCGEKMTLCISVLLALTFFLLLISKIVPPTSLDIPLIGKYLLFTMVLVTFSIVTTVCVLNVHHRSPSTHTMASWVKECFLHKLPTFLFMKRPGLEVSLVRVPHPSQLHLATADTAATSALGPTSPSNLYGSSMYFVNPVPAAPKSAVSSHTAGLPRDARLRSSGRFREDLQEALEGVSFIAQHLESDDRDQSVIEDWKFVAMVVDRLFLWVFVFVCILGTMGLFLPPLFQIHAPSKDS
T8 sequence (P12389 28-511): as the sequence (P12389 28-511) above
T8 sequence (P12390 25-500): as the sequence (P12390 25-500) above

| Compound | inhibition at 10 µM (Alpha2Beta4) [%] | inhibition at 10 µM (5-HT4) [%] | inhibition at 10 µM (M1) [%] | inhibition at 10 µM (Alpha3Beta2) [%] | inhibition at 10 µM (D4) [%] | inhibition at 10 µM (NET) [%] | inhibition at 10 µM (5-HT3) [%] | inhibition at 10 µM (Alpha2Beta2) [%] | inhibition at 10 µM (H2) [%] |
| --- | --- | --- | --- | --- | --- | --- | --- | --- | --- |
| CCc1noc(-c2ncn3c2CN=C(c2ccccc2F)c2cc(C4CC4)ccc2-3)n1 [Compound 44, 5-(8-Cyclopropyl-6-(2′-fluorophenyl)-4H-benzo[f]imidazo[1,5-a][1,4]diazepin-3-yl)-3-ethyl-1,2,4-oxadiazole] | 8.23 | -9.26 | 9.28 | -0.02 | -4.07 | 4.9 | 12.8 | -6.67 | 1.55 |
| CCc1noc(-c2ncn3c2[C@@H](C)N=C(c2ccccc2F)c2cc(C4CC4)ccc2-3)n1 [Compound 46, (R)-5-(8-Cyclopropyl-6-(2′-fluorophenyl)-4-methyl-4H-benzo[f]imidazo[1,5-a][1,4]diazepin-3-yl)-3-ethyl-1,2,4-oxadiazole] | 6.41 | 3.05 | 0.86 | 5.55 | 10.6 | 24.3 | 29.8 | -2.72 | 6.98 |
